In EP0349354A1, “Peptides PF10 to PF19 from a retro virus HIV, method for the synthesis of these peptides and their use, particularly in diagnostics” (INSTITUT PASTEUR, priority 1988, dated 1990):

Experiments:
[1] = test system: anticorps anti-protéine F; assay: Western blot test on peptide spots with sera of HIV-1 infected patients; assay type: binding, humain; settings: serum 1545 diluted 1/200; spot 10µl of peptide at 2 mg/ml
Protocol: Pour les besoins du test, les différents peptides PF16, PF19, PF13, PF17 utilisés sont dilués à une concentration de 2 mg/ml.
Sur une bande de papier BIORAD pour transblot, on dépose différents spots : 1µl, 2µl, 5µl, 10µl.
Après séchage on pratique un test Western Blot classique en utilisant comme anticorps des sérums de patients infectés par le virus HIV-1, positifs pour la protéine F, à des dilutions variant de 1/100 à 1/300.
Les peptides testés permettent d'aboutir aux résultats résumés dans le tableau 2 avec trois sérums différents anti-F ++ (++ signifiant une réaction plus marquée).

anticorps anti-nef = assay: ELISA for detection of anti-nef antibodies on coated peptides or nef; assay type: binding, humain

## XCYKLVPVEPDKVEEANKGENTSLLHPVSLHGMDDPEREVLEWRFDSRL AFHHVARELHPEYFKNCZ [PF17, protéine F HIV-1, séquence 141-205]
[1]
  réaction avec sérum 1545 1/200, 10µl: tr
Anticorps anti-nef; ELISA, out of 31 anti-nef positive sera
  nombre de sérums anti-nef positifs ayant réagi: 26
Anticorps anti-nef; Serum 1, anti-nef positive, 500 ng coated per well
  intensité de l'immunoréactivité (OD), Serum 1: +++ (pour OD = 0,8 à 2,0)
Anticorps anti-nef; Serum 2, anti-nef positive, 500 ng coated per well
  intensité de l'immunoréactivité (OD), Serum 2: +++ (pour OD = 0,8 à 2,0)
Anticorps anti-nef; Serum 3, anti-nef positive, 500 ng coated per well
  intensité de l'immunoréactivité (OD), Serum 3: + (pour OD = 0,2 à 0,4)
Anticorps anti-nef; Serum 4, anti-nef positive, 500 ng coated per well
  intensité de l'immunoréactivité (OD), Serum 4: +++ (pour OD = 0,8 à 2,0)
Anticorps anti-nef; Serum 5, anti-nef positive, 500 ng coated per well
  intensité de l'immunoréactivité (OD), Serum 5: +++ (pour OD = 0,8 à 2,0)
Anticorps anti-nef; Serum 6, anti-nef positive, 500 ng coated per well
  intensité de l'immunoréactivité (OD), Serum 6: +++ (pour OD = 0,8 à 2,0)
Anticorps anti-nef; Serum 7, anti-nef positive, 500 ng coated per well
  intensité de l'immunoréactivité (OD), Serum 7: - (pour une densité optique (OD) inférieure à 0,2)
Anticorps anti-nef; Serum 8, anti-nef positive, 500 ng coated per well
  intensité de l'immunoréactivité (OD), Serum 8: - (pour une densité optique (OD) inférieure à 0,2)
Anticorps anti-nef; Serum 9, anti-nef positive, 500 ng coated per well
  intensité de l'immunoréactivité (OD), Serum 9: - (pour une densité optique (OD) inférieure à 0,2)
Anticorps anti-nef; Serum 10, anti-nef positive, 500 ng coated per well
  intensité de l'immunoréactivité (OD), Serum 10: ++ (pour OD = 0,4 à 0,8)
Anticorps anti-nef; Serum 11, anti-nef positive, 500 ng coated per well
  intensité de l'immunoréactivité (OD), Serum 11: + (pour OD = 0,2 à 0,4)
Anticorps anti-nef; Serum 12, anti-nef positive, 500 ng coated per well
  intensité de l'immunoréactivité (OD), Serum 12: - (pour une densité optique (OD) inférieure à 0,2)
Anticorps anti-nef; Serum 13, anti-nef positive, 500 ng coated per well
  intensité de l'immunoréactivité (OD), Serum 13: ++ (pour OD = 0,4 à 0,8)
Anticorps anti-nef; Serum 14, anti-nef positive, 500 ng coated per well
  intensité de l'immunoréactivité (OD), Serum 14: - (pour une densité optique (OD) inférieure à 0,2)
Anticorps anti-nef; Serum 15, anti-nef positive, 500 ng coated per well
  intensité de l'immunoréactivité (OD), Serum 15: +++ (pour OD = 0,8 à 2,0)
Anticorps anti-nef; Serum 16, anti-nef positive, 500 ng coated per well
  intensité de l'immunoréactivité (OD), Serum 16: ++ (pour OD = 0,4 à 0,8)
Anticorps anti-nef; Serum 17, anti-nef positive, 500 ng coated per well
  intensité de l'immunoréactivité (OD), Serum 17: ++ (pour OD = 0,4 à 0,8)
Anticorps anti-nef; Serum 18, anti-nef positive, 500 ng coated per well
  intensité de l'immunoréactivité (OD), Serum 18: +++ (pour OD = 0,8 à 2,0)
Anticorps anti-nef; Serum 19, anti-nef positive, 500 ng coated per well
  intensité de l'immunoréactivité (OD), Serum 19: +++ (pour OD = 0,8 à 2,0)
Anticorps anti-nef; Serum 20, anti-nef positive, 500 ng coated per well
  intensité de l'immunoréactivité (OD), Serum 20: ++ (pour OD = 0,4 à 0,8)
Anticorps anti-nef; Serum 21, anti-nef positive, 500 ng coated per well
  intensité de l'immunoréactivité (OD), Serum 21: +++ (pour OD = 0,8 à 2,0)
Anticorps anti-nef; Serum 22, anti-nef positive, 500 ng coated per well
  intensité de l'immunoréactivité (OD), Serum 22: +++ (pour OD = 0,8 à 2,0)
Anticorps anti-nef; Serum 23, anti-nef positive, 500 ng coated per well
  intensité de l'immunoréactivité (OD), Serum 23: ++ (pour OD = 0,4 à 0,8)
Anticorps anti-nef; Serum 24, anti-nef positive, 500 ng coated per well
  intensité de l'immunoréactivité (OD), Serum 24: +++ (pour OD = 0,8 à 2,0)
Anticorps anti-nef; Serum 25, anti-nef positive, 500 ng coated per well
  intensité de l'immunoréactivité (OD), Serum 25: +++ (pour OD = 0,8 à 2,0)
Anticorps anti-nef; Serum 26, anti-nef positive, 500 ng coated per well
  intensité de l'immunoréactivité (OD), Serum 26: ++ (pour OD = 0,4 à 0,8)
Anticorps anti-nef; Serum 27, anti-nef positive, 500 ng coated per well
  intensité de l'immunoréactivité (OD), Serum 27: + (pour OD = 0,2 à 0,4)
Anticorps anti-nef; Serum 28, anti-nef positive, 500 ng coated per well
  intensité de l'immunoréactivité (OD), Serum 28: ++ (pour OD = 0,4 à 0,8)
Anticorps anti-nef; Serum 29, anti-nef positive, 500 ng coated per well
  intensité de l'immunoréactivité (OD), Serum 29: ++ (pour OD = 0,4 à 0,8)
Anticorps anti-nef; Serum 30, anti-nef positive, 500 ng coated per well
  intensité de l'immunoréactivité (OD), Serum 30: +++ (pour OD = 0,8 à 2,0)
Anticorps anti-nef; Serum 31, anti-nef positive, 500 ng coated per well
  intensité de l'immunoréactivité (OD), Serum 31: ++ (pour OD = 0,4 à 0,8)
Anticorps anti-nef; Serum 32, anti-nef negative control serum, 500 ng coated per well
  intensité de l'immunoréactivité (OD), Serum 32: - (pour une densité optique (OD) inférieure à 0,2)
Anticorps anti-nef; Serum 33, anti-nef negative control serum, 500 ng coated per well
  intensité de l'immunoréactivité (OD), Serum 33: - (pour une densité optique (OD) inférieure à 0,2)
